# Results taken from paper PMC6115637 (Chemical Science, 2018).
# Changes are numbered by the printed parent chain.
# How the values were obtained:
# Assay type in all cases: cell-based
# M4 receptor I81A = biological target: T1, M4 receptor I81A (Homo sapiens, UniProt P08173, I81A); assay: Split luciferase biosensor cAMP assay for Gi activation, M4 mutant I81A; settings: M4 mutant I81A vs WT
# T1 sequence (P08173 1-479 I81A): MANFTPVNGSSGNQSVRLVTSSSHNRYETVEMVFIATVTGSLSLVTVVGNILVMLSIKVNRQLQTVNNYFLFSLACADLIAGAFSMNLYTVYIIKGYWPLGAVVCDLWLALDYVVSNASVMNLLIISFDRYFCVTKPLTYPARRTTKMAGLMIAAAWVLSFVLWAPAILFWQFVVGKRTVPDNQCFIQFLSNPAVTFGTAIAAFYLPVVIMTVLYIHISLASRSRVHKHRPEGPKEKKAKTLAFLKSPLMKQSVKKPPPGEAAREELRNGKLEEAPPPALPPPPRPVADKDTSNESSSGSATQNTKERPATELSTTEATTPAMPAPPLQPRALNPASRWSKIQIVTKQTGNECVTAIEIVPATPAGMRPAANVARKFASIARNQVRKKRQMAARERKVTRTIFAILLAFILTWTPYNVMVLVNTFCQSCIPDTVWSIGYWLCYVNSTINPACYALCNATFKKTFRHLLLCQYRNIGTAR
# M4 receptor S116A = biological target: T2, M4 receptor S116A (Homo sapiens, UniProt P08173, S116A); assay: Split luciferase biosensor cAMP assay for Gi activation, M4 mutant S116A; settings: M4 mutant S116A vs WT
# T2 sequence (P08173 1-479 S116A): T1 sequence (P08173 1-479 I81A) with A81I, S116A
# M4 receptor S119A = biological target: T3, M4 receptor S119A (Homo sapiens, UniProt P08173, S119A); assay: Split luciferase biosensor cAMP assay for Gi activation, M4 mutant S119A; settings: M4 mutant S119A vs WT
# T3 sequence (P08173 1-479 S119A): T1 sequence (P08173 1-479 I81A) with A81I, S119A
# M4 receptor V120A = biological target: T4, M4 receptor V120A (Homo sapiens, UniProt P08173, V120A); assay: Split luciferase biosensor cAMP assay for Gi activation, M4 mutant V120A; settings: M4 mutant V120A vs WT
# T4 sequence (P08173 1-479 V120A): T1 sequence (P08173 1-479 I81A) with A81I, V120A
# M4 receptor F409A = biological target: T5, M4 receptor F409A (Homo sapiens, UniProt P08173, F409A); assay: Split luciferase biosensor cAMP assay for Gi activation, M4 mutant F409A; settings: M4 mutant F409A vs WT
# T5 sequence (P08173 1-479 F409A): T1 sequence (P08173 1-479 I81A) with A81I, F409A
# M4 receptor W413A = biological target: T6, M4 receptor W413A (Homo sapiens, UniProt P08173, W413A); assay: Split luciferase biosensor cAMP assay for Gi activation, M4 mutant W413A
# T6 sequence (P08173 1-479 W413A): T1 sequence (P08173 1-479 I81A) with A81I, W413A
# M4 receptor N445A = biological target: T7, M4 receptor N445A (Homo sapiens, UniProt P08173, N445A); assay: Split luciferase biosensor cAMP assay for Gi activation, M4 mutant N445A; settings: M4 mutant N445A vs WT
# T7 sequence (P08173 1-479 N445A): T1 sequence (P08173 1-479 I81A) with A81I, N445A
structure (smiles),measurement,setting,value
"CC(=O)OCC[N+](C)(C)C [ACh, acetylcholine]",activity decrease compared to WT M4 receptor,M4 receptor I81A,100 times
same,activity decrease compared to WT M4 receptor,M4 receptor S116A,100 times
same,decreased activity compared to WT M4 receptor,M4 receptor S119A,4–14 fold
same,change of EC50 compared to WT M4 receptor (printed: increased the EC50),M4 receptor V120A,16 fold
same,decreased activity compared to WT M4 receptor,M4 receptor F409A,4–14 fold
same,activity of M4 mutant towards ACh,M4 receptor W413A,completely inactive
same,decreased activity compared to WT M4 receptor,M4 receptor N445A,4–14 fold
